The values that follow come from patent publication US20240238358A1, “TRADITIONAL CHINESE MEDICINE COMPOSITION FOR INFECTIOUS DISEASE RECOVERY AND USE THEREOF” (CHINA RESOURCES SANJIU MEDICAL & PHARMACEUTICAL CO., LTD., priority 2021, published 2024).

The test has as its system ARE luciferase activity of 293T cells. The test can be described thus: ARE luciferase reporter gene activity in transfected 293T cells (dual-luciferase, anti-oxidation activity). It counts as cell-based. To be noted: tBHQ 10 μM, 6 h, n = 18, control = 1 ± 0.19, relative luciferase activity. How it is done:
The 293T cells in the logarithmic growth phase were inoculated in a 96-well cell culture plate at a density of 2×10^5 cells/mL. After the growth density of the cells reached 70%-80%, the ARE and NF-kB luciferase reporter plasmids pGL4.37 and pGL4.32 (100 ng/well) and the […] luciferase reporter plasmid pGL4.75 (10 ng/well) were simultaneously transfected using the PEI (1 mg/mL) transfection reagent and then cultured for 24 h. After 24 h of culture, cells transfected with the ARE luciferase reporter plasmid pGL4.37 were added to tBHQ (10 μM) and each of the sample solutions of the traditional Chinese compositions of the present disclosure with safe concentrations, respectively, a control group was set, and the cells were cultured for 6 h; cells transfected with the NF-kB luciferase reporter plasmid pGL4.32 were added to TNF-α (10 ng/mL)-dexamethasone (10 μM) diluted with a complete medium and each of the sample solutions of the traditional Chinese compositions of the present disclosure with safe concentrations, respectively, a control group and a model group (10 ng/mL TNF-a) were set, and the cells were cultured for 6 h. The supernatant was discarded, the cells were rinsed with PBS, and after the cells were lysed, the cells were detected by a dual-luciferase detection system. Six duplicate wells were set for each experiment, and each experiment was repeated three times. […]
On the technique in general: A reporter such as luciferase makes a cellular process visible.

For the compound `CC(C)(C)c1cc(O)ccc1O` [tBHQ, tertiary butylhydroquinone], the “ARE luciferase activity of 293T cells (x ± SD)” value is on record as 6.82 ± 1.28.
